Experimental data reported in patent US7638535B2, “4-(aminomethyl)-piperidine benzamides as 5HT4-antagonists” (Janssen Pharmaceutica N.V., priority 2003, dated 2009).

Molecular target: T1, h5-HT4b (Homo sapiens, UniProt Q13639)
T1 construct: expressed in transfected cells; host or cells: HEK 293 (clone 9), membrane preparation
Assay: 5HT4 antagonism: [3H]GR113808 binding to membranes of h5-HT4b-HEK 293 clone 9 cells
Conditions: displacement of [3H]GR113808 0.1 nM, h5-HT4b-HEK 293 membranes, 30 min at 25° C.; read-out: pIC50 (5HT4 antagonistic data) (converted)
Protocol: h5-HT4b-HEK 293 clone 9 cells were cultured in 150 mm Petri dishes and washed twice with cold PBS. The cells were then scraped from the plates and suspended in 50 mM Tris-HCl buffer, pH 7.4 and harvested by centrifugation at 23,500 rpm for 10 minutes. The pellet was resuspended in 5 mM Tris-HCl, pH 7.4 and homogenized with an Ultra Turrax homogenizer. The membranes were collected by centrifugation at 30,000 rpm for 20 min, resuspended in 50 mM Tris-HCl pH 7.4 and stored at −80° C. For the experiment, assay mixtures (0.5 ml) contained 50 μl of the tritiated ligand (5-HT4 antagonist [^3H]GR113808 0.1 nM) and 0.4 ml membrane preparation (15 μg protein/ml). 50 μl of 10% DMSO was added for total binding. 50 μl of 1 μM of (+)-trans-(1-butyl-3-hydroxy-4-piperidinyl)methyl 8-amino-7-chloro-2,3-dihydro-1,4-benzodioxin-5-carboxylate (a proprietary 5HT4 agonist of Janssen Pharmaceutica) was added for determination of non-specific binding.
The [^3H]GR113808 assay buffer was 50 mM HEPES-NaOH, pH 7.4. The mixtures were incubated for 30 min at 25° C. The incubation was terminated by filtration over a Unifilter 96 GF/B presoaked in 0.1% polyethylenimine, followed by six washing steps with 50 mM HEPES-NaOH, pH 7.4.

T1 sequence (Q13639 whole entry): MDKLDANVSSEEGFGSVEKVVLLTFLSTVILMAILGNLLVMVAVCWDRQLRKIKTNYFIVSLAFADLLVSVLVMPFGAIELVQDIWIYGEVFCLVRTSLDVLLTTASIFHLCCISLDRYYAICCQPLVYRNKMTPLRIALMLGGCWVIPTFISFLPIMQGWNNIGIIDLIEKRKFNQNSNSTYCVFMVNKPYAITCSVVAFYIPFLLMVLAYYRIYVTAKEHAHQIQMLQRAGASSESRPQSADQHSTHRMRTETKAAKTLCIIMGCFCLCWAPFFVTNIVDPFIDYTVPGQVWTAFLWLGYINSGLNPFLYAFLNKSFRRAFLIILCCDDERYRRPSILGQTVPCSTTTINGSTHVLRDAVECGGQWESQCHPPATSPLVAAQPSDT

Going from `N#CCCCN1CC[C@@H](CNC(=O)c2cc(N)cc3c2OCCCO3)[C@H](O)C1` [compound 3] to `N#CCCCN1CC[C@@H](CNC(=O)c2cc(N)cc3c2OCCO3)[C@H](O)C1` [compound 6], the IC50 rises from 38 nM to 57.5 nM (1.5-fold).

Compared with `Nc1cc2c(c(C(=O)NC[C@@H]3CCN(CC4CCCO4)C[C@H]3O)c1)OCCCO2` (some centres unmarked) [compound 4], `Nc1cc2c(c(C(=O)NC[C@@H]3CCN(CC4CCCO4)C[C@H]3O)c1)OCCO2` (some centres unmarked) [compound 22] is 3.9-fold lower in IC50: 69.2 nM for the first, 17.8 nM for the second.

First: Cc1cc2c(c(C(=O)NC[C@@H]3CCNC[C@H]3O)c1)OCCCO2 [compound 5]
Second: Nc1cc(C(=O)NC[C@@H]2CCNC[C@H]2O)c2c(c1Cl)OCCO2 [compound 8]
The IC50 of the first is 5.8-fold lower: 64.6 nM for the first, 372 nM for the second.

`Nc1cc(C(=O)NC[C@@H]2CCN(CCCO)C[C@H]2O)c2c(c1Cl)OCCO2` [compound 7] and `Nc1cc(C(=O)NC[C@@H]2CCN(CCCCO)C[C@H]2O)c2c(c1Cl)OCCO2` [compound 53] are within 1.5-fold of each other in IC50: 17.8 nM for the first, 20 nM for the second.

`COCCCN1CC[C@@H](CNC(=O)c2cc(N)c(Cl)c3c2OCCO3)[C@H](O)C1` [compound 9] and `COCCCCN1CC[C@@H](CNC(=O)c2cc(N)c(Cl)c3c2OCCO3)[C@H](O)C1` [compound 29] are within 1.5-fold of each other in IC50: 16.2 nM for the first, 11 nM for the second.

Compared with `Nc1cc(C(=O)NC[C@@H]2CCN(CC3CCCO3)C[C@H]2O)c2c(c1Cl)OCCO2` (some centres unmarked) [compound 10], `Nc1cc(C(=O)NCC2CCN(CC3CCCO3)C[C@H]2O)c2c(c1Cl)OCCCO2` (some centres unmarked) [compound 51] is 2.4-fold higher in IC50: 6.03 nM for the first, 14.5 nM for the second.

First: CNc1cc2c(c(C(=O)NC[C@@H]3CCN(CCCO)C[C@H]3O)c1)OCCO2 [compound 12]
Second: CNc1cc2c(c(C(=O)NC[C@@H]3CCN(CCOCCO)C[C@H]3O)c1)OCCO2 [compound 84]
The IC50 of the first is 2.2-fold lower: 41.7 nM for the first, 93.3 nM for the second.

Going from `CNc1cc2c(c(C(=O)NC[C@@H]3CCN(CCC4OCCO4)C[C@H]3O)c1)OCCCO2` [compound 13] to `CNc1cc2c(c(C(=O)NC[C@@H]3CCN(CCC4OCCO4)C[C@H]3O)c1)OCCO2` [compound 17], the IC50 falls from 708 nM to 25.7 nM (28-fold).

`Nc1cc(C(=O)NC[C@@H]2CCN(CCC3OCCO3)C[C@H]2O)c2c(c1Cl)OCCO2` [compound 14] and `Nc1cc(C(=O)NC[C@@H]2CCN(CCC3OCCO3)C[C@H]2O)c2c(c1Cl)OCCCO2` [compound 52] are within 1.5-fold of each other in IC50: 16.6 nM for the first, 14.8 nM for the second.

`N#CCCCN1CC[C@@H](CNC(=O)c2cc(N)c(Cl)c3c2OCCO3)[C@H](O)C1` [compound 15] and `N#CCCCN1CC[C@@H](CNC(=O)c2cc(N)c(Cl)c3c2OCCCO3)[C@H](O)C1` [compound 48] are within 1.5-fold of each other in IC50: 30.2 nM for the first, 33.1 nM for the second.

First: Nc1cc2c(c(C(=O)NC[C@@H]3CCN(CCCC(=O)O)C[C@H]3O)c1)OCCO2 [compound 18]
Second: Nc1cc2c(c(C(=O)NC[C@@H]3CCN(CCCC(=O)O)C[C@H]3O)c1)OCCCO2 [compound 39]
The IC50 of the first is 6.3-fold lower: 195 nM for the first, 1230 nM for the second.

Going from `CNc1cc2c(c(C(=O)NC[C@@H]3CCN(CC4CCCO4)C[C@H]3O)c1)OCCO2` (some centres unmarked) [compound 19] to `CNc1cc2c(c(C(=O)NC[C@@H]3CCN(CC4CCCO4)C[C@H]3O)c1)OCCCO2` (some centres unmarked) [compound 21], the IC50 rises from 17.4 nM to 63.1 nM (3.6-fold).

Compared with `CNc1cc2c(c(C(=O)NC[C@@H]3CCN(CCCC#N)C[C@H]3O)c1)OCCO2` [compound 20], `CNc1cc2c(c(C(=O)NC[C@@H]3CCN(CCCC#N)C[C@H]3O)c1)OCCCO2` [compound 38] is 5.5-fold higher in IC50: 52.5 nM for the first, 288 nM for the second.

Going from `CC(C)OCCCN1CC[C@@H](CNC(=O)c2cc(N)cc3c2OCCO3)[C@H](O)C1` [compound 23] to `CC(C)OCCCN1CC[C@@H](CNC(=O)c2cc(N)cc3c2OCCCO3)[C@H](O)C1` [compound 37], the IC50 rises from 19.1 nM to 36.3 nM (1.9-fold).

Compared with `Nc1cc(C(=O)NC[C@@H]2CCN(CCCC(=O)O)C[C@H]2O)c2c(c1Cl)OCCO2` [compound 25], `Nc1cc(C(=O)NC[C@@H]2CCN(CCCC(=O)O)C[C@H]2O)c2c(c1Cl)OCCCO2` [compound 66] is 2-fold higher in IC50: 138 nM for the first, 282 nM for the second.

Going from `CNc1cc2c(c(C(=O)NC[C@@H]3CCN(CCCC(=O)O)C[C@H]3O)c1)OCCCO2` [compound 27] to `CNc1cc2c(c(C(=O)NC[C@@H]3CCN(CCCC(C)=O)C[C@H]3O)c1)OCCCO2` [compound 77], the IC50 falls from 2630 nM to 69.2 nM (38-fold).

Going from `CCCCN1CC[C@@H](CNC(=O)c2cc(NC)c(Cl)c3c2OCCO3)[C@H](O)C1` [compound 28] to `CCCCN1CC[C@@H](CNC(=O)c2cc(N)c(Cl)c3c2OCCCO3)[C@H](O)C1` [compound 46], the IC50 falls from 15.5 nM to 8.32 nM (1.9-fold).

First: CNc1cc(C(=O)NC[C@@H]2CCN(CCC3OCCO3)C[C@H]2O)c2c(c1Cl)OCCO2 [compound 30]
Second: CC1(CCCN2CC[C@@H](CNC(=O)c3cc(N)c(Cl)c4c3OCCO4)[C@H](O)C2)OCCO1 [compound 43]
The IC50 of the first is 2.4-fold higher: 31.6 nM for the first, 13.2 nM for the second.

`Nc1cc(C(=O)NC[C@@H]2CCN(CCCOC3CCCCC3)C[C@H]2O)c2c(c1Cl)OCCO2` [compound 31] and `Nc1cc(C(=O)NC[C@@H]2CCN(CCCOC3CCCCC3)C[C@H]2O)c2c(c1Cl)OCCCO2` [compound 65] are within 1.5-fold of each other in IC50: 3.31 nM for the first, 3.55 nM for the second.

First: COCCN1CC[C@@H](CNC(=O)c2cc(N)cc3c2OCCO3)[C@H](O)C1 [compound 32]
Second: COCCN1CC[C@@H](CNC(=O)c2cc(N)cc3c2OCCCO3)[C@H](O)C1 [compound 45]
The IC50 of the first is 2.1-fold lower: 63.1 nM for the first, 135 nM for the second.

Compared with `CNc1cc2c(c(C(=O)NC[C@@H]3CCN(CCCOC4CCCCC4)C[C@H]3O)c1)OCCCO2` [compound 34], `CNc1cc2c(c(C(=O)NC[C@@H]3CCN(CCCOC4CCCCC4)C[C@H]3O)c1)OCCO2` [compound 40] is 4.6-fold lower in IC50: 31.6 nM for the first, 6.92 nM for the second.

Compared with `CNc1cc2c(c(C(=O)NC[C@@H]3CCN(CCOC)C[C@H]3O)c1)OCCO2` [compound 35], `CNc1cc2c(c(C(=O)NC[C@@H]3CCN(CCCCOC)C[C@H]3O)c1)OCCO2` [compound 54] is 3-fold lower in IC50: 44.7 nM for the first, 14.8 nM for the second.

`CNc1cc2c(c(C(=O)NC[C@@H]3CCN(CCCOC(C)C)C[C@H]3O)c1)OCCO2` [compound 36] and `CNc1cc2c(c(C(=O)NC[C@@H]3CCN(CCCC(C)=O)C[C@H]3O)c1)OCCO2` [compound 61] are within 1.5-fold of each other in IC50: 21.4 nM for the first, 14.5 nM for the second.

`COCCCCN1CC[C@@H](CNC(=O)c2cc(N)cc3c2OCCO3)[C@H](O)C1` [compound 41] and `CC(=O)CCCN1CC[C@@H](CNC(=O)c2cc(N)cc3c2OCCO3)[C@H](O)C1` [compound 83] are within 1.5-fold of each other in IC50: 15.5 nM for the first, 14.8 nM for the second.

Compared with `COCCN1CC[C@@H](CNC(=O)c2cc(N)c(Cl)c3c2OCCO3)[C@H](O)C1` [compound 42], `COCCN1CC[C@@H](CNC(=O)c2cc(N)c(Cl)c3c2OCCCO3)[C@H](O)C1` [compound 79] is 2.1-fold higher in IC50: 18.6 nM for the first, 39.8 nM for the second.

Compared with `COCCCN1CC[C@@H](CNC(=O)c2cc(N)c(Cl)c3c2OCCCO3)[C@H](O)C1` [compound 47], `COCCCCN1CC[C@@H](CNC(=O)c2cc(N)c(Cl)c3c2OCCCO3)[C@H](O)C1` [compound 58] is 2.2-fold lower in IC50: 31.6 nM for the first, 14.1 nM for the second.

Going from `Nc1cc2c(c(C(=O)NC[C@@H]3CCN(CCCOC4CCCCC4)C[C@H]3O)c1)OCCCO2` [compound 49] to `Nc1cc2c(c(C(=O)NC[C@@H]3CCN(CCCCO)C[C@H]3O)c1)OCCCO2` [compound 73], the IC50 rises from 25.7 nM to 55 nM (2.1-fold).

Going from `Nc1cc2c(c(C(=O)NC[C@@H]3CCN(Cc4ccc(F)cc4)C[C@H]3O)c1)OCCCO2` [compound 55] to `CNc1cc2c(c(C(=O)NC[C@@H]3CCN(Cc4ccc(F)cc4)C[C@H]3O)c1)OCCCO2` [compound 74], the IC50 rises from 64.6 nM to 214 nM (3.3-fold).

`CNc1cc2c(c(C(=O)NC[C@@H]3CCN(Cc4ccc(F)cc4)C[C@H]3O)c1)OCCO2` [compound 56] and `Nc1cc(C(=O)NC[C@@H]2CCN(Cc3ccc(F)cc3)C[C@H]2O)c2c(c1Cl)OCCO2` [compound 64] are within 1.5-fold of each other in IC50: 17.8 nM for the first, 15.5 nM for the second.

Compared with `CC1(CCCN2CC[C@@H](CNC(=O)c3cc(N)cc4c3OCCCO4)[C@H](O)C2)OCCO1` [compound 59], `CC1(CCCN2CC[C@@H](CNC(=O)c3cc(N)c(Cl)c4c3OCCCO4)[C@H](O)C2)OCCO1` [compound 76] is 2.2-fold lower in IC50: 51.3 nM for the first, 22.9 nM for the second.

Compared with `CC(=O)CCCN1CC[C@@H](CNC(=O)c2cc(N)cc3c2OCCCO3)[C@H](O)C1` [compound 60], `Nc1cc2c(c(C(=O)NC[C@@H]3CCN(CCOCCO)C[C@H]3O)c1)OCCCO2` [compound 69] is 6-fold higher in IC50: 81.3 nM for the first, 490 nM for the second.

Compared with `CNc1cc2c(c(C(=O)NC[C@@H]3CCN(CCCCOC)C[C@H]3O)c1)OCCCO2` [compound 62], `CNCCCN1CC[C@@H](CNC(=O)c2cc(NC)cc3c2OCCCO3)[C@H](O)C1` [compound 81] is 14-fold higher in IC50: 81.3 nM for the first, 1150 nM for the second.

First: CNc1cc2c(c(C(=O)NC[C@@H]3CCN(CCOCCO)C[C@H]3O)c1)OCCCO2 [compound 67]
Second: Nc1cc(C(=O)NC[C@@H]2CCN(CCOCCO)C[C@H]2O)c2c(c1Cl)OCCCO2 [compound 72]
The IC50 of the first is 5.8-fold higher: 479 nM for the first, 83.2 nM for the second.

First: Nc1cc(C(=O)NC[C@@H]2CCN(CCOCCO)C[C@H]2O)c2c(c1Cl)OCCO2 [compound 70]
Second: CC(=O)CCCN1CC[C@@H](CNC(=O)c2cc(N)c(Cl)c3c2OCCCO3)[C@H](O)C1 [compound 80]
The IC50 of the first is 12-fold higher: 89.1 nM for the first, 7.59 nM for the second.

First: CS(=O)(=O)NCCN1CC[C@@H](CNC(=O)c2cc(N)c(Cl)c3c2OCCCO3)[C@H](O)C1 [compound 75]
Second: N#CCN1CC[C@@H](CNC(=O)c2cc(N)c(Cl)c3c2OCCCO3)[C@H](O)C1 [compound 82]
The IC50 of the first is 200-fold lower: 30.9 nM for the first, 6170 nM for the second.

With `Nc1cc(C(=O)NC[C@@H]2CCN(Cc3ccc(F)cc3)C[C@H]2O)c2c(c1Cl)OCCCO2` [compound 78] the IC50 was 9.33 nM.
